Data set [1] in a line: Gravimetric Vapor Sorption (GVS) isotherm and XRPD post GVS. The class given is physicochemical. How it is done: Gravimetric Vapor Sorption (GVS) isotherms were obtained using a SMS DVS Intrinsic moisture sorption analyser, controlled by DVS Intrinsic Control software v1.0.1.2 (or v 1.0.1.3). The sample temperature was maintained at 25° C. by the instrument controls. The humidity was controlled by mixing streams of dry and wet nitrogen, with a total flow rate of 200 mL/min. The relative humidity was measured by a calibrated Rotronic probe (dynamic range of 1.0-100% RH), located near the sample. The weight change, (mass relaxation) of the sample as a function of % RH was constantly monitored by the microbalance (accuracy ±0.005 mg). Typically 5-20 mg of sample was placed in a tared mesh stainless steel basket under ambient conditions. The sample was loaded and unloaded at 40% RH and 25° C. (typical room conditions). A moisture sorption isotherm was performed as outlined below (2 scans giving 1 complete cycle). The standard isotherm was performed at 25° C. at 10% RH intervals over a 0-90% RH range. Data analysis was undertaken in Microsoft Excel using DVS Analysis Suite v6.2 (or 6.1 or 6.0).
Method Parameters for SMS DVS Intrinsic Experiments
The sample was recovered after completion of the isotherm and re-analysed by XRPD.

Data set [2] in a line: Solubility and pH of saturated solution. Type of data set: physicochemical.
A short description of data set [3]: Human multiple-dose pharmacokinetic comparison. The following applies: for Cmax / Tmax: in vivo. The class given is in vivo. How it is done: Human Pharmacokinetic Comparison of Compound 1 X-Hydrate and Compound 1 Anhydrous Form
Table 6 compares human multiple-dose pharmacokinetic (PK) parameters between dosing with Compound 1 X-hydrate and Compound 1 Anhydrous form. Compound 1 X-hydrate was dosed at 600 mg twice daily (bid) for three days followed by dosing at 300 mg once daily (qd) for 10 days. Compound 1 Anhydrous form was dosed at 300 mg qd for 14 days.

A short description of data set [4]: XRPD stability post 2 weeks storage at temperature and humidity. Type of data set: physicochemical. As for the experimental part: X-Ray Powder Diffraction patterns were collected on a Bruker AXS C2 GADDS diffractometer using Cu Kα radiation (40 kV, 40 mA), automated XYZ stage, laser video microscope for auto-sample positioning and a Hi Star 2-dimensional area detector. X-ray optics consists of a single Göbel multilayer mirror coupled with a pinhole collimator of 0.3 mm. A weekly performance check is carried out using a certified standard NIST 1976 Corundum (flat plate). The beam divergence, i.e. the effective size of the X-ray beam on the sample, was approximately 4 mm. A Θ-Θ continuous scan mode was employed with a sample-detector distance of 20 cm which gives an effective […] of 3.2°-29.7°. Typically the sample would be exposed to the X-ray beam for 120 seconds. The software used for data collection was GADDS for XP/2000 4.1.43 and the data were analysed and presented using Diffrac Plus EVA v13.0.0.2 or v15.0.0.0. […]
X-Ray Powder Diffraction patterns were also collected on a Bruker D8 diffractometer using Cu Kα radiation (40 kV, 40 mA), 0-20 goniometer, and divergence of V4 and receiving slits, a Ge monochromator and a Lynxeye detector. […] The software used for data collection was Diffrac Plus XRD Commander v2.6.1 and the data were analysed and presented using Diffrac Plus EVA v13.0.0.2 or v15.0.0.0. […]

Where [5] appears, read: 600 mg bid loading dose for 3 days, then 300 mg qd maintenance for 10 days.
Where [6] appears, read: 300 mg qd for 14 days vs X-hydrate 600 mg bid for three days then 300 mg qd for 10 days.

Each structure is given as a SMILES string.

For orientation: solubility means how much of the substance goes into solution per volume. Read a high solubility as much dissolved substance. The term Cmax denotes the peak of the concentration-time curve. For orientation: Tmax means the time at which the peak concentration occurs.

With `O[C@@](Cn1cnnn1)(c1ccc(F)cc1F)C(F)(F)c1ccc(-c2ccc(OCC(F)(F)F)cc2)cn1` [Compound 1 X-Hydrate], the GVS sample hysteresis in data set [1] (0-90% RH, 25° C.) is 90% RH. No sample hysteresis. The “GVS water uptake at 90% RH” value in data set [1] (25° C., listed as X-hydrate 1) was determined as 0.59% w/w water uptake at. Moreover, the “XRPD post GVS” value in data set [1] (after GVS experiment) is “No form change after GVS”. This compound came in with a solubility in data set [2] below 1 µg/mL. Also, in data set [2] (listed as X-hydrate 1), the “pH of saturated solution” value is “pH of saturated solution = 8.6”. Further, in data set [3] (setting [5]), the AUC0-8 h is given as 17600 ngh/mL, the highest level (Cmax) was 2520 ng/mL and the Tmax stood at 5 h. The “XRPD stability post 2 weeks at 25° C. & 97% RH” value in data set [4] (25° C. & 97% RH) is reported as “No change in crystalline form”. The “XRPD stability post 2 weeks at 40° C. & 75% RH” value in data set [4] (40° C. & 75% RH) is given as “No change in crystalline form”.

On to `O[C@@](Cn1cnnn1)(c1ccc(F)cc1F)C(F)(F)c1ccc(-c2ccc(OCC(F)(F)F)cc2)cn1` [Compound 1 Anhydrous], for which, in data set [1] (25° C., listed as Anhydrous 1), the “GVS water uptake at 90% RH” value is listed as 0.14% w/w water uptake at. Besides, the “pH of saturated solution” value in data set [2] (listed as Anhydrous 1) is on record as “pH of saturated solution = 8.7”. Also, in data set [3] (300 mg qd for 14 days), the AUC0-8 h was 35653 ngh/mL, the concentration peaked (Cmax) at 4690 ng/mL and the Tmax amounted to 5 h. In data set [3] (setting [6]), the “area-under-the-curve (AUC) compared with Compound 1 X-hydrate” value was “higher” and the “maximal concentration (Cmax) compared with Compound 1 X-hydrate” value was “higher”.

The values are drawn from US10676459B2, “Antifungal compounds and processes for making” (MYCOVIA PHARMACEUTICALS INC., priority 2015, dated 2020).
